pIC50: −log10 of the molar value. One block for each compound: values may come before it.
System: 931267-113-T-J1-PDC multicell spheroid viability
Assay: Anticancer human tumor 931267-113-T-J1-PDC patient-derived colon adenocarcinoma cell line growth inhibition [PI3K]
Details: for pIC50: curve of first compound; for viability, T/C: stronger effect = lower value
Outline: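 Complex 3D spheroids (cancer cells + endothelial HUVEC + mesenchymal stem cells); drug pairs of targeted agent x inavolisib/alpelisib/duvelisib/copanlisib; half-log series from ~Cmax, max 10 microM if Cmax unknown; endpoint viability.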

[1] = second compound 0.0316 µM, first compound 0.0316 µM
[2] = second compound 0.0316 µM, first compound 0.1 µM
[3] = second compound 0.0316 µM, first compound 0.316 µM
[4] = second compound 0.0316 µM, first compound 1 µM
[5] = second compound 0.1 µM, first compound 0.0316 µM
[6] = second compound 0.1 µM, first compound 0.1 µM
[7] = second compound 0.1 µM, first compound 0.316 µM
[8] = second compound 0.1 µM, first compound 1 µM
[9] = second compound 0.316 µM, first compound 0.0316 µM
[10] = second compound 0.316 µM, first compound 0.1 µM
[11] = second compound 0.316 µM, first compound 0.316 µM
[12] = second compound 0.316 µM, first compound 1 µM
[13] = second compound 1 µM, first compound 0.0316 µM
[14] = second compound 1 µM, first compound 0.1 µM
[15] = second compound 1 µM, first compound 0.316 µM
[16] = second compound 1 µM, first compound 1 µM
[17] = second compound 3.16 µM, first compound 0.0316 µM
[18] = second compound 3.16 µM, first compound 0.1 µM
[19] = second compound 3.16 µM, first compound 0.316 µM
[20] = second compound 3.16 µM, first compound 1 µM
[21] = second compound 10 µM, first compound 0.0316 µM
[22] = second compound 10 µM, first compound 0.1 µM
[23] = second compound 10 µM, first compound 0.316 µM
[24] = second compound 10 µM, first compound 1 µM
[25] = second compound 0.0316 µM, first compound 0.00316 µM
[26] = second compound 0.0316 µM, first compound 0.01 µM
[27] = second compound 0.1 µM, first compound 0.00316 µM
[28] = second compound 0.1 µM, first compound 0.01 µM
[29] = second compound 0.316 µM, first compound 0.00316 µM
[30] = second compound 0.316 µM, first compound 0.01 µM
[31] = second compound 1 µM, first compound 0.00316 µM
[32] = second compound 1 µM, first compound 0.01 µM
[33] = second compound 3.16 µM, first compound 0.00316 µM
[34] = second compound 3.16 µM, first compound 0.01 µM
[35] = second compound 10 µM, first compound 0.00316 µM
[36] = second compound 10 µM, first compound 0.01 µM
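Also: viability read 7 days after compound addition.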

pIC50 (second compound 0.0316 µM): < 5.00
pIC50 (second compound 0.1 µM): < 5.00
pIC50 (second compound 0.316 µM): < 5.00
pIC50 (second compound 1 µM): < 5.00
pIC50 (second compound 3.16 µM): < 5.00
pIC50 (second compound 10 µM): < 5.00
SMILES: CC(C)NCC(C(=O)N1CCN(c2ncnc3c2C(C)CC3O)CC1)c1ccc(Cl)cc1 (stereo unspecified) + Cc1nc(NC(=O)N2CCCC2C(N)=O)sc1-c1ccnc(C(C)(C)C(F)(F)F)c1
viability, T/C [1]: 103%
viability, T/C [2]: 103%
viability, T/C [3]: 90.9%
viability, T/C [4]: 95.2%
viability, T/C (second compound 0.0316 µM, first compound 3.16 µM): 97.6%
viability, T/C (second compound 0.0316 µM, first compound 10 µM): 73.5%
viability, T/C [5]: 97.8%
viability, T/C [6]: 85.5%
viability, T/C [7]: 92.6%
viability, T/C [8]: 86.7%
viability, T/C (second compound 0.1 µM, first compound 3.16 µM): 83.5%
viability, T/C (second compound 0.1 µM, first compound 10 µM): 71.7%
viability, T/C [9]: 97.9%
viability, T/C [10]: 89.6%
viability, T/C [11]: 88.7%
viability, T/C [12]: 84%
viability, T/C (second compound 0.316 µM, first compound 3.16 µM): 80.4%
viability, T/C (second compound 0.316 µM, first compound 10 µM): 68.6%
viability, T/C [13]: 82.2%
viability, T/C [14]: 80.4%
viability, T/C [15]: 89.3%
viability, T/C [16]: 88.8%
viability, T/C (second compound 1 µM, first compound 3.16 µM): 79.9%
viability, T/C (second compound 1 µM, first compound 10 µM): 67.7%
viability, T/C [17]: 73.2%
viability, T/C [18]: 81.1%
viability, T/C [19]: 67.7%
viability, T/C [20]: 65%
viability, T/C (second compound 3.16 µM, first compound 3.16 µM): 70%
viability, T/C (second compound 3.16 µM, first compound 10 µM): 61%
viability, T/C [21]: 60.4%
viability, T/C [22]: 52.4%
viability, T/C [23]: 59%
viability, T/C [24]: 57.4%
viability, T/C (second compound 10 µM, first compound 3.16 µM): 62.8%
viability, T/C (second compound 10 µM, first compound 10 µM): 51.4%

pIC50 (second compound 0.0316 µM): < 6.00
pIC50 (second compound 0.1 µM): < 6.00
pIC50 (second compound 0.316 µM): < 6.00
pIC50 (second compound 1 µM): < 6.00
pIC50 (second compound 3.16 µM): < 6.00
pIC50 (second compound 10 µM): < 6.00
SMILES: CCN1CCN(Cc2ccc(Nc3ncc(F)c(-c4cc(F)c5nc(C)n(C(C)C)c5c4)n3)nc2)CC1 + Cc1nc(NC(=O)N2CCCC2C(N)=O)sc1-c1ccnc(C(C)(C)C(F)(F)F)c1
viability, T/C [25]: 91.7%
viability, T/C [26]: 99.6%
viability, T/C [1]: 100%
viability, T/C [2]: 103%
viability, T/C [3]: 94.3%
viability, T/C [4]: 86.2%
viability, T/C [27]: 98%
viability, T/C [28]: 97.1%
viability, T/C [5]: 102%
viability, T/C [6]: 96.5%
viability, T/C [7]: 84.6%
viability, T/C [8]: 84.5%
viability, T/C [29]: 91.2%
viability, T/C [30]: 81.2%
viability, T/C [9]: 96.1%
viability, T/C [10]: 91.8%
viability, T/C [11]: 81%
viability, T/C [12]: 75.1%
viability, T/C [31]: 69.4%
viability, T/C [32]: 83.1%
viability, T/C [13]: 79.7%
viability, T/C [14]: 77.5%
viability, T/C [15]: 71.5%
viability, T/C [16]: 62.4%
viability, T/C [33]: 71.4%
viability, T/C [34]: 80.7%
viability, T/C [17]: 66.8%
viability, T/C [18]: 61.9%
viability, T/C [19]: 55.8%
viability, T/C [20]: 59.4%
viability, T/C [35]: 58.6%
viability, T/C [36]: 57%
viability, T/C [21]: 50.1%
viability, T/C [22]: 43.3%
viability, T/C [23]: 50.4%
viability, T/C [24]: 57.2%

pIC50 (second compound 0.0316 µM): < 7.00
pIC50 (second compound 0.1 µM): < 7.00
pIC50 (second compound 0.316 µM): < 7.00
pIC50 (second compound 1 µM): < 7.00
pIC50 (second compound 3.16 µM): < 7.00
pIC50 (second compound 10 µM): < 7.00
SMILES: Cn1ncnc1[C@H]1c2n[nH]c(=O)c3cc(F)cc(c23)N[C@@H]1c1ccc(F)cc1 + Cc1nc(NC(=O)N2CCCC2C(N)=O)sc1-c1ccnc(C(C)(C)C(F)(F)F)c1
viability, T/C (second compound 0.0316 µM, first compound 0.000316 µM): 107%
viability, T/C (second compound 0.0316 µM, first compound 0.001 µM): 98.2%
viability, T/C [25]: 84.2%
viability, T/C [26]: 94.1%
viability, T/C [1]: 91%
viability, T/C [2]: 97.5%
viability, T/C (second compound 0.1 µM, first compound 0.000316 µM): 113%
viability, T/C (second compound 0.1 µM, first compound 0.001 µM): 94.8%
viability, T/C [27]: 107%
viability, T/C [28]: 98.8%
viability, T/C [5]: 90.2%
viability, T/C [6]: 75.1%
viability, T/C (second compound 0.316 µM, first compound 0.000316 µM): 93.9%
viability, T/C (second compound 0.316 µM, first compound 0.001 µM): 89.5%
viability, T/C [29]: 89.5%
viability, T/C [30]: 95%
viability, T/C [9]: 82%
viability, T/C [10]: 89.8%
viability, T/C (second compound 1 µM, first compound 0.000316 µM): 74.5%
viability, T/C (second compound 1 µM, first compound 0.001 µM): 73.7%
viability, T/C [31]: 86.3%
viability, T/C [32]: 78.5%
viability, T/C [13]: 79.7%
viability, T/C [14]: 72.1%
viability, T/C (second compound 3.16 µM, first compound 0.000316 µM): 78.9%
viability, T/C (second compound 3.16 µM, first compound 0.001 µM): 68.6%
viability, T/C [33]: 61.7%
viability, T/C [34]: 63.8%
viability, T/C [17]: 70.7%
viability, T/C [18]: 64.6%
viability, T/C (second compound 10 µM, first compound 0.000316 µM): 57.7%
viability, T/C (second compound 10 µM, first compound 0.001 µM): 55.2%
viability, T/C [35]: 54.2%
viability, T/C [36]: 51.8%
viability, T/C [21]: 59.2%
viability, T/C [22]: 52.8%

— PubChem BioAssay AID1963970 (Molecular Pharmacology Branch, DTP, NCI, 2024)
